Patent US9125915B2, “Antitumor agent” (Mitsubishi Tanabe Pharma Corporation, priority 2007, dated 2015)
Read-outs that look alike come from different tables or passages of the source.

What was measured:
HCT-116 = test: Growth suppressive activity test against cancer cells (WST-8), HCT-116; type: cell-based; conditions: Homo sapiens, 72 h, HCT-116, colorectal cancer, 3 days culture, read-out: cell proliferation suppressive activity GI50
Experimental: (§1) Using RPMI 1640 medium (manufactured by SIGMA) supplemented with 10% fetal bovine serum, human promyelocytic leukemia-derived cell line HL-60, human acute lymphoblastic leukemia-derived cell line MOLT4, human Burkitt's lymphoma-derived cell line Daudi, and human multiple myeloma-derived cell line RPMI-8226 were respectively cultured at 37° C., 5% CO2. In addition, using ISKOV medium (manufactured by SIGMA) supplemented with 10% fetal bovine serum, human chronic myeloid leukemia-derived cell line MV4-11 was cultured at 37° C., 5% CO2. Moreover, using DMEM/F-12 medium (manufactured by SIGMA) supplemented with 10% fetal bovine serum, human lung cancer cell-derived cell line EBC-1, human hepatocellular cancer-derived cell line Kim-1, human colorectal cancer-derived cell line HCT-116, human prostate cancer-derived cell line PC-3, human ovarian cancer-derived cell line A2780, and human osteosarcoma-derived cell line Saos2 were respectively cultured at 37° C., 5% CO2. […] The absorbance at 650 nm was subtracted from the absorbance at 450 nm. The growth suppressive activity was shown by a decrease rate of the absorbance of the compound addition group to that of the compound non-addition group, and GI50 value was determined from a dose-reaction curve plotting a decrease rate of the absorbance obtained by changing the compound concentration and the compound concentrations.

MOLT-4 = test: Growth suppressive activity test against cancer cells (WST-8), MOLT-4; type: cell-based; conditions: Homo sapiens, 72 h, MOLT-4, acute lymphoblastic leukemia, 3 days culture, read-out: cell proliferation suppressive activity GI50
Experimental: as §1

Kim-1 = test: Growth suppressive activity test against cancer cells (WST-8), Kim-1; type: cell-based; conditions: Homo sapiens, 72 h, Kim-1, hepatocellular cancer, 3 days culture, read-out: cell proliferation suppressive activity GI50
Experimental: as §1

MV4-11 = test: Growth suppressive activity test against cancer cells (WST-8), MV4-11; type: cell-based, human
Experimental: Using RPMI 1640 medium (manufactured by SIGMA) supplemented with 10% fetal bovine serum, human promyelocytic leukemia-derived cell line HL-60, human acute lymphoblastic leukemia-derived cell line MOLT4, human Burkitt's lymphoma-derived cell line Daudi, and human multiple myeloma-derived cell line RPMI-8226 were respectively cultured at 37° C., 5% CO2. In addition, using ISKOV medium (manufactured by SIGMA) supplemented with 10% fetal bovine serum, human chronic myeloid leukemia-derived cell line MV4-11 was cultured at 37° C., 5% CO2. Moreover, using DMEM/F-12 medium (manufactured by SIGMA) supplemented with 10% fetal bovine serum, human lung cancer cell-derived cell line EBC-1, human hepatocellular cancer-derived cell line Kim-1, human colorectal cancer-derived cell line HCT-116, human prostate cancer-derived cell line PC-3, human ovarian cancer-derived cell line A2780, and human osteosarcoma-derived cell line Saos2 were respectively cultured at 37° C., 5% CO2. These cells were plated on a 96 well plate, and cultured for 1 day. Thereto was added a compound diluted with the medium to a final concentration of 0.0003-10 μm (final DMSO concentration, 0.4%). After culture for 3 more days, WST-8 (0.16 mg/mL) was added to the culture medium and the cells were cultured for 2 hr. The absorbance at 650 nm was subtracted from the absorbance at 450 nm. The growth suppressive activity was shown by a decrease rate of the absorbance of the compound addition group to that of the compound non-addition group, and GI50 value was determined from a dose-reaction curve plotting a decrease rate of the absorbance obtained by changing the compound concentration and the compound concentrations.

Saos2 = test: Growth suppressive activity test against cancer cells (WST-8), Saos2; type: cell-based; conditions: Homo sapiens, SAOS-2, 72 h, Saos2, osteosarcoma, 3 days culture, read-out: cell proliferation suppressive activity GI50
Experimental: as §1

A-2780 = test: Growth suppressive activity test against cancer cells (WST-8), A-2780; type: cell-based; conditions: Homo sapiens, A2780, 72 h, A-2780, ovarian cancer, 3 days culture, read-out: cell proliferation suppressive activity GI50
Experimental: as §1

HL-60 = test: Growth suppressive activity test against cancer cells (WST-8), HL-60; type: cell-based; conditions: Homo sapiens, 72 h, HL-60, promyelocytic leukemia, 3 days culture, read-out: cell proliferation suppressive activity GI50
Experimental: as §1

RPMI-8226 = test: Growth suppressive activity test against cancer cells (WST-8), RPMI-8226; type: cell-based; conditions: Homo sapiens, 72 h, RPMI-8226, multiple myeloma, 3 days culture, read-out: cell proliferation suppressive activity GI50
Experimental: as §1

Daudi = test: Growth suppressive activity test against cancer cells (WST-8), Daudi; type: cell-based; conditions: Homo sapiens, 72 h, Burkitt's lymphoma, 3 days culture, read-out: cell proliferation suppressive activity GI50
Experimental: as §1

PC-3 = test: Growth suppressive activity test against cancer cells (WST-8), PC-3; type: cell-based; conditions: Homo sapiens, 72 h, PC-3, prostate cancer, 3 days culture, read-out: cell proliferation suppressive activity GI50
Experimental: as §1

EBC-1 = test: Growth suppressive activity test against cancer cells (WST-8), EBC-1; type: cell-based; conditions: Homo sapiens, 72 h, EBC-1, non-small cell lung cancer, 3 days culture, read-out: cell proliferation suppressive activity GI50
Experimental: as §1

BRD4 = BRD4 (Homo sapiens (Human), UniProt O60885); test: Binding inhibitory test of acetylated histone H4 and BRD4 (TR-FRET); conditions: CHO cell lysate with Flag-BRD4, biotin-labeled acetylated histone H4 peptide
Experimental: An expression vector containing cDNA of BRD2, 3 and 4 added with Flag-tag was transfected to CHO cell, and a cell lysate was prepared 24 hr later. Binding of acetylated histone H4 and BRD was confirmed by a Time Resolved Fluorescence Resonance Energy Transfer (TR-FRET) method. To a 384-well white plate (manufactured by Coaster) were added 50 nmol/L biotin-labeled acetylated histone H4 peptide (manufactured by Upstate) and a serially diluted test compound.

[1] = Homo sapiens, 72 h, MV4-11, chronic myeloid leukemia, 3 days culture, read-out: cell proliferation suppressive activity GI50
[2] = Homo sapiens, 72 h, MV4-11, 3 days culture, read-out: growth suppressive activity on MV4-11 GI50
[3] = MV4-11, 3 days culture, read-out: growth suppressive activity on MV4-11 GI50

Compound | IC50 (BRD4) | GI50 (MV4-11; [3]) | further results
Cc1sc2c(c1C)C(c1ccc(Cl)cc1)=N[C@@H](CC(=O)Nc1ccc(O)cc1)c1nnc(C)n1-2 [Compound 1, (S)-2-[4-(4-chlorophenyl)-2,3,9-trimethyl-6H-thieno[3,2-f][1,2,4]triazolo[4,3-a][1,4]diazepin-6-yl]-N-(4-hydroxyphenyl)acetamide] |  |  | GI50 (HCT-116): 563 nM; GI50 (MOLT-4): 80 nM; GI50 (Kim-1): 569 nM; GI50 (MV4-11; [1]): 60.7 nM; GI50 (Saos2): 481 nM; GI50 (A-2780): 619 nM; GI50 (HL-60): 149 nM; GI50 (RPMI-8226): 130 nM; GI50 (Daudi): 611 nM; GI50 (PC-3): 1030 nM; GI50 (EBC-1): 491 nM
COC(=O)C[C@@H]1N=C(c2ccc(-c3cccc(C#N)c3)cc2)c2c(sc(C)c2C)-n2c(C)nnc21 [Compound 2, methyl (S)-{4-(3′-cyanobiphenyl-4-yl)-2,3,9-trimethyl-6H-thieno[3,2-f][1,2,4]triazolo[4,3-a][1,4]diazepin-6-yl}acetate] | 121 nM |  | GI50 (HCT-116): 356 nM; GI50 (MOLT-4): 106 nM; GI50 (Kim-1): 104 nM; GI50 (MV4-11; [2]): 19 nM; GI50 (MV4-11; [1]): 19 nM; GI50 (Saos2): 269 nM; GI50 (A-2780): 130 nM; GI50 (HL-60): 7 nM; GI50 (RPMI-8226): 69.4 nM; GI50 (Daudi): 67.4 nM; GI50 (PC-3): 199 nM; GI50 (EBC-1): 207 nM
CCOC(=O)C[C@@H]1N=C(c2ccc(Nc3cccnc3)cc2)c2c(sc(C)c2C)-n2c(C)nnc21 [compound 3] | 54.9 nM | 20 nM | 
COC(=O)C[C@@H]1N=C(c2ccc(Nc3c(F)cc(F)cc3F)cc2)c2c(sc(CO)c2C)-n2c(C)nnc21 [compound 4] | 77.2 nM | 95 nM | 
COC(=O)C[C@@H]1N=C(c2ccc(Cl)cc2)c2c(sc(Cl)c2C)-n2c(C)nnc21 [compound 5] | 54.2 nM | 73 nM | 
COC(=O)C[C@@H]1N=C(c2ccc(Cl)cc2)c2c(sc(C)c2C)-n2c(C)nnc21 [compound 6] | 18.2 nM | 26 nM | 
COC(=O)C[C@@H]1N=C(c2ccc(-c3ccc(OC)cc3)cc2)c2c(sc(CO)c2C)-n2c(C)nnc21 [compound 7] | 113 nM | 55 nM | 
COC(=O)C[C@@H]1N=C(c2ccc(Nc3ccccc3)cc2)c2c(sc(C)c2C)-n2c(C)nnc21 [compound 8, methyl (S)-{2,3,9-trimethyl-4-(4-phenylaminophenyl)-6H-thieno[3,2-f][1,2,4]triazolo[4,3-a][1,4]diazepin-6-yl}acetate] |  |  | GI50 (MV4-11; [2]): 9 nM
COC(=O)C[C@@H]1N=C(c2ccc(NCc3ccccc3)cc2)c2c(sc(C)c2C)-n2c(C)nnc21 [compound 9] | 73.6 nM | 39 nM | 
COC(=O)C[C@@H]1N=C(c2ccc(NC(=O)CCc3ccccc3)cc2)c2c(sc(C)c2C)-n2c(C)nnc21 [compound 10, methyl (S)-{2,3,9-trimethyl-4-[4-(3-phenylpropionylamino)phenyl]-6H-thieno[3,2-f][1,2,4]triazolo[4,3-a][1,4]diazepin-6-yl}acetate] | 47.1 nM |  | GI50 (MV4-11; [2]): 7 nM
CCOC(=O)C[C@@H]1N=C(c2ccc(N(C)c3ccc(F)cc3)cc2)c2c(sc(C)c2C)-n2c(C)nnc21 [compound 11] | 225 nM | 95 nM | 
Cc1sc2c(c1C)C(c1ccc(Cl)cc1)=NC(CC(=O)Nc1cccnc1)c1nnc(C)n1-2 (stereo not drawn) [compound 12] | 108 nM | 30 nM | 
CNC(=O)CC1N=C(c2ccc(Cl)cc2)c2c(sc(C)c2C)-n2c(C)nnc21 (stereo not drawn) [compound 13] | 17.3 nM | 22 nM | 
Cc1sc2c(c1C)C(c1ccc(Cl)cc1)=NC(CC(=O)NCCO)c1nnc(C)n1-2 (stereo not drawn) [compound 14] |  | 42 nM | 
Cc1sc2c(c1C)C(c1ccc(Cl)cc1)=NC(CC(=O)Nc1ccc(N)cc1)c1nnc(C)n1-2 (stereo not drawn) [compound 15] | 120 nM | 34 nM | 
COc1ccc(NC(=O)C[C@@H]2N=C(c3ccc(Cl)cc3)c3c(sc(C)c3C)-n3c(C)nnc32)cn1 [compound 16] | 116 nM | 28 nM | 
CONC(=O)C[C@@H]1N=C(c2ccc(Cl)cc2)c2c(sc(C)c2C)-n2c(C)nnc21 [compound 17] | 12.8 nM | 14 nM | 
COc1ncccc1NC(=O)C[C@@H]1N=C(c2ccc(Cl)cc2)c2c(sc(C)c2C)-n2c(C)nnc21 [compound 18] | 147 nM | 48 nM | 
